Measurements as given in US9862697B2, “pH-sensitive fluorescent sensors for biological amines” (The Curators of the University of Missouri, priority 2013, dated 2018).
Marks after values point to notes of the source that are not given here.

What was measured:
[1] = pH titration of sensor (absorbance and fluorescence monitored), pKa; type: physicochemical; details: buffered solution of the sensor; unbound sensor; pH and fluorescence intensity data fit to a pH isotherm
Procedure: (§1) The spectroscopic properties of several exemplary inventive sensors have been examined, along with the starting compound 1, as 7-hydroxycoumarins are well known for their pH-sensitivity. First, the acidity of the sensors was discerned by performing pH titrations where aliquots of aqueous HCl were added to a buffered solution of the sensor and the absorbance and fluorescence were monitored. The pKa of the pH-sensitive unit is related to the donating ability of the sulfonamide substituent. ES517 has a dimethylamino-substituent on the sulfonamide which is the best electron-donor into the sulfonyl motif. This makes deprotonation of the N—H proton located at the 7-position of the coumarin core the least favorable and therefore the least acidic. The pH and fluorescence intensity data were fit to a pH isotherm and the pKa was determined to be 6.3. As the donating ability of the sulfonamide substituent into the sulfonyl motif worsened, the acidity of the N—H proton located at the 7-position of the coumarin core increased. The aromatic substituents are the least electron donating substituents into the sulfonyl motif which explains the greater acidity. By using a single coupling reaction, the pKa of the sensor may be tuned to fit the parameters of the experiment.

[2] = Spectroscopic properties of unbound sensors; type: physicochemical; set-up: λmax (GH) / λmax (G-): unit not given here; details: for λem (ex: 488 nm): excitation 488 nm; for λmax (G-) / λmax (GH): unbound sensor; for λmax (G-): deprotonated form G-; for λmax (GH): protonated form GH
Procedure: as §1
(§2) Table 1 summarizes the spectroscopic properties of the tested compounds in pH varying environments, mimicking the vesicular and synaptic cleft conditions.

[3] = Fluorescence at pH 7.4 vs 5.0 of sensor saturated with glutamate
Procedure: Next, the sensor was saturated with 300 mM glutamate in order to mimic vesicular conditions. The fluorescence intensity of the bound complex was then monitored between the pH values of 5 and 7.4, the acidities associated with the synaptic vesicle and synaptic cleft, respectively. An excitation wavelength of 488 nm was used because it is far enough to the red to ensure that only the bound, deprotonated sensor was excited. It is also a common wavelength used in fluorescence microscopy cell studies. The fluorescence intensity increased for all sensors upon basification from pH 5 to 7.4, however the sensors with the highest pKa values gave the greatest enhancements.
as §2

[4] = Fluorescence at pH 7.4 vs 5.0 of ES517 saturated with GABA; details: ES517 20 μM saturated with 300 mM GABA
Source text: (§3) The ES517 was further analyzed for binding and spectroscopic properties with the common neurotransmitters other than glutamate released upon exocytosis. […] The aromatic neurotransmitters dampened the fluorescence turn-on response of the inventive sensors due to the electron-rich nature of catecholamines (norepinephrine and dopamine) and indoleamines (serotonin).

[5] = Fluorescence at pH 7.4 vs 5.0 of ES517 saturated with glycine; details: ES517 20 μM saturated with 300 mM glycine
Source text: as §3

[6] = Fluorescence at pH 7.4 vs 5.0 of ES517 saturated with norepinephrine; details: ES517 20 μM saturated with 100 mM norepinephrine
Source text: as §3

[7] = Fluorescence at pH 7.4 vs 5.0 of ES517 saturated with dopamine; details: ES517 20 μM saturated with 100 mM dopamine
Source text: as §3

[8] = Binding study (fluorescence titration) of ES517 with glutamate
Procedure: While low, this binding constant is believed to be preferred for reversible binding due to the high millimolar concentration of glutamate in a vesicle (˜300 mM).

[9] = Binding study (fluorescence titration) of ES517 with GABA
[10] = Binding study (fluorescence titration) of ES517 with glycine
[11] = Binding study (fluorescence titration) of ES517 with norepinephrine
[12] = Binding study (fluorescence titration) of ES517 with dopamine
[13] = Binding study (fluorescence titration) of ES517 with serotonin
[14] = pKa and absorbance of the bound sensor (ES517 saturated with glutamate) over a wide pH range; type: physicochemical
Source text: ES517 was saturated with glutamate and the spectroscopic properties measured over a wide pH range. The protonated form of the bound sensor (FIG. 4, structure B) absorbed at 368 nm. […] The 428 nm band was assigned to the unbound deprotonated form of the sensor (structure C). The 458 nm band therefore represents the bound, deprotonated sensor (structure D). The plot of pH vs. intensity was fit to a pH isotherm and the pKa determined to be 6.3.

[15] = sensor saturated with 0.3M glutamate, intensities monitored at pH 5.0 and 7.4
[16] = ES517 20 μM, buffered, pH 7.4, ±10% error
[17] = fluorescence enhancement upon binding at pH 7.4, λem = 517 nm

O=Cc1c(-c2ccccc2)c2ccc(O)cc2oc1=O
pKa [1]: 5.8 | λem (ex: 488 nm) [2]: 468 nm | λmax (G-) [2]: 420 | λmax (GH) [2]: 368 | IpH 7.4/IpH 5 [3, 15]: 3.3

CS(=O)(=O)Nc1ccc2c(-c3ccccc3)c(C=O)c(=O)oc2c1
pKa [1]: 5.9 | λem (ex: 488 nm) [2]: 489 nm | λmax (G-) [2]: 420 | λmax (GH) [2]: 365 | IpH 7.4/IpH 5 [3, 15]: 5.5

CN(C)S(=O)(=O)Nc1ccc2c(-c3ccccc3)c(C=O)c(=O)oc2c1 [ES517]
pKa [1]: 6.3 | λem (ex: 488 nm) [2]: 498 nm | λmax (G-) [2]: 419 | λmax (GH) [2]: 368 | IpH 7.4/IpH 5 ([3]; ES517 20 μM saturated with 300 mM glutamate, fluorescence at pH 7.4 vs. 5.0): 12^d | IpH 7.4/IpH 5 [3, 15]: 12 | IpH 7.4/IpH 5 [4]: 11 ^d | IpH 7.4/IpH 5 [5]: 10 ^d | IpH 7.4/IpH 5 [6]: 5.3 ^e | IpH 7.4/IpH 5 [7]: 5.5 ^e | Ka ([8]; glutamate, ES517 20 μM, 50 mM bis-tris propane, 50 mM Na2S2O3, 1% DMSO, pH 7.4, ±10% error): 8.6 M⁻¹ | Isat/I0 ([8]; glutamate, fluorescence enhancement upon binding at pH 7.4, Isat from theoretical max of binding isotherm, λem = 517 nm): 12 | fluorescence enhancement upon binding to glutamate ([8]; titration with glutamate, excitation 488 nm): 12 fold | Ka [9, 16]: 8.3 M⁻¹ | Isat/I0 [9, 17]: 27 | Ka [10, 16]: 9.2 M⁻¹ | Isat/I0 [10, 17]: 25 | Ka [11, 16]: 49 M⁻¹ | Isat/I0 [11, 17]: 14 | Ka [12, 16]: 55 M⁻¹ | Isat/I0 [12, 17]: 10 | Ka [13, 16]: 54 M⁻¹ | Isat/I0 [13, 17]: 0.5 | absorbance of protonated form of the bound sensor (structure B) [14]: 368 nm | absorbance band of bound, deprotonated sensor (structure D) ([14]; upon deprotonation): 458 nm | absorbance band of unbound deprotonated form of the sensor (structure C) ([14]; upon deprotonation): 428 nm

O=Cc1c(-c2ccccc2)c2ccc(NS(=O)(=O)c3cccs3)cc2oc1=O
pKa [1]: 5.2 | λem (ex: 488 nm) [2]: 494 nm | λmax (G-) [2]: 416 | λmax (GH) [2]: 366 | IpH 7.4/IpH 5 [3, 15]: 2.5
